We go through 25 compounds from US8642657B2 (Gruenenthal GmbH, priority 2003, dated 2014).

Data set [1] addresses T1, rat VR1 (Rattus norvegicus, UniProt O35433).
T1 construct: expressed in transfected cells
In words: 45Ca2+-uptake assay in CHO/VR1 cells, antagonism of capsaicin-stimulated uptake. The class given is cell-based. The note with it: 45Ca2+ uptake stimulated by 50 nM capsaicin.

Data set [2] concerns the target T1, rat VR1. As to the kind of experiment: [3H]resiniferatoxin (RTX) competition binding assay, VR1-transfected CHO cells. The method, boiled down: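 Competition with [3H]RTX (50-100 pM) ran 60 min at 37° C using whole VR1-induced CHO cells in BSA-containing DPBS, nonspecific defined by 100 nM cold RTX. After centrifugation, pellet radioactivity counted by scintillation; Hill fits gave Ki and cooperativity.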

Where [3] appears, read: competition with [3H]RTX, rat VR1 in CHO cells, read-out: Ki (nM) Binding Affinity.

Broadly, the Ki is the equilibrium dissociation constant of an inhibitor or competing ligand from its target. What is called melting point is the temperature, or range, at which the solid turns liquid.

T1 sequence (O35433 whole entry): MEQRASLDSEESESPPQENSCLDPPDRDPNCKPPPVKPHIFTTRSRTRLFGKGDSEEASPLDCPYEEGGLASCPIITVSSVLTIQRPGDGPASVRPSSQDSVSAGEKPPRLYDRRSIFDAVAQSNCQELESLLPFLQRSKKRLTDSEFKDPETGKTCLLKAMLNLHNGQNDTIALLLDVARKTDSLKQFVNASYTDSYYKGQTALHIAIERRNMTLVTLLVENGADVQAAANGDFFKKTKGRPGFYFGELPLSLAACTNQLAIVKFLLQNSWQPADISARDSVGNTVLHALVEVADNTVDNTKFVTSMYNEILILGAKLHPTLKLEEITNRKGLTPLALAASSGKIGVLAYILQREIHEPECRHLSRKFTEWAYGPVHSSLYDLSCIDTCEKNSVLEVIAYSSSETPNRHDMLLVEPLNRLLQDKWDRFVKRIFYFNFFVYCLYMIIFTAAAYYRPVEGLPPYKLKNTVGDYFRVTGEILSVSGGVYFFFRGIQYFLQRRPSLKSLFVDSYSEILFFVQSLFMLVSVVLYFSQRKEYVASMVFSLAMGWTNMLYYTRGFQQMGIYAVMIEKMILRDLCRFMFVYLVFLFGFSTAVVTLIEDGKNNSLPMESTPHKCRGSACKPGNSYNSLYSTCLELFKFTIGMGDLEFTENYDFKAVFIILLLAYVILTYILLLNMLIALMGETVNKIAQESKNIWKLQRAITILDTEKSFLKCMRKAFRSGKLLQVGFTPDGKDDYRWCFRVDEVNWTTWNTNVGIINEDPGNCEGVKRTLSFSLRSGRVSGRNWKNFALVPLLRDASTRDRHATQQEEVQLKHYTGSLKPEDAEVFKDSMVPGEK

For the compound `Cc1ccc(CC(CNC(=O)C(C)c2ccc(NS(C)(=O)=O)cc2)COC(=O)C(C)(C)C)cc1C` (stereo not drawn) [5-1, N-[2-(3,4-Dimethylbenzyl)-3-pivaloyloxypropyl]-2-[4-(methylsulfonylamino)phenyl]propionamide], the melting point lay within 112 to 115 °C. The inhibitory constant (Ki) at rat VR1 [1] was 38 nM. In addition, at rat VR1 [2] (setting [3]), the Ki came to 119 nM.
Compound `CC(C(=O)NCC(COC(=O)C(C)(C)C)Cc1ccc(C(C)(C)C)cc1)c1ccc(NS(C)(=O)=O)cc1` (stereo not drawn) [5-2, N-[2-(4-t-Butylbenzyl)-3-pivaloyloxypropyl]-2-[4-(methylsulfonylamino)phenyl]propionamide] came in with a melting point of 97 to 100 °C. In addition, the Ki on rat VR1 [1] came out at 52 nM. The inhibitory constant (Ki) on rat VR1 [2] (setting [3]) stood at 55.2 nM.
As for `Cc1ccc(CC(CNC(=O)C(C)c2ccc(NS(C)(=O)=O)c(F)c2)COC(=O)C(C)(C)C)cc1C` (stereo not drawn) [5-3, 2-[3-Fluoro-4-(methylsulfonylamino)phenyl]-N-[2-(3,4-dimethylbenzyl)-3-pivaloyloxypropyl]propionamide], the melting point fell in the range of 46 to 48 °C. The same compound gave a Ki at rat VR1 [1] of 10.8 nM. Moreover, the Ki on rat VR1 [2] (setting [3]) turned out to be 33.1 nM.
`CC(C(=O)NCC(COC(=O)C(C)(C)C)Cc1ccc(C(C)(C)C)cc1)c1ccc(NS(C)(=O)=O)c(F)c1` (stereo not drawn) [5-4, 2-[3-Fluoro-4-(methylsulfonylamino)phenyl]-N-[2-(4-tert-butylbenzyl)-3-pivaloyloxypropyl]propionamide] yielded a melting point of 113 to 115 °C. At rat VR1 [1], this compound had a Ki of 3.24 nM. In addition, the Ki on rat VR1 [2] (setting [3]) is 13.6 nM.
`COc1cc(C(C)C(=O)NCC(COC(=O)C(C)(C)C)Cc2ccc(C)c(C)c2)ccc1NS(C)(=O)=O` (stereo not drawn) [5-5, N-[2-(3,4-Dimethylbenzyl)-3-pivaloyloxypropyl]-2-[3-methoxy-4-(methylsulfonylamino)phenyl]propionamide] showed a melting point of 54 to 57 °C. For the same compound, the affinity on rat VR1 [1] corresponds to a Ki of 13.6 nM. Moreover, at rat VR1 [2] (setting [3]), the Ki was determined as 71.2 nM.
For `Cc1ccc(CC(CNC(=O)C(C)c2ccc(NS(C)(=O)=O)c(Cl)c2)COC(=O)C(C)(C)C)cc1C` (stereo not drawn) [5-7, N-[2-(3,4-Dimethylbenzyl)-3-pivaloyloxypropyl]-2-[3-chloro-4-(methylsulfonylamino)phenyl]propionamide], in that order: 127 to 129 °C, 35.7 nM and 11.3 nM.
In turn, `CC(C(=O)NCC(COC(=O)C(C)(C)C)Cc1ccc(C(C)(C)C)cc1)c1ccc(NS(C)(=O)=O)c(Cl)c1` (stereo not drawn) [5-8, N-[2-(4-tert-Butylbenzyl)-3-pivaloyloxypropyl]-2-[3-chloro-4-(methylsulfonylamino)phenyl]propionamide] registered a melting point of 142 to 144 °C. The compound also had a Ki on rat VR1 [1] of 12.3 nM. Also, on rat VR1 [2] (setting [3]), the Ki came out at 3.62 nM.
For `C[C@H](C(=O)N[C@@H](COC(=O)C(C)(C)C)Cc1ccccc1)c1ccc(NS(C)(=O)=O)c(F)c1` [6-1, N—[(R)-1-Benzyl-2-(pivaloyloxy)ethyl]-(S)-2-[3-fluoro-4-(methylsulfonylamino)phenyl]propionamide], the melting point was determined as 115 °C. For the same compound, on rat VR1 [1], affinity was put at a Ki of 1470 nM. The Ki on rat VR1 [2] (setting [3]) was 12800 nM.
For `C[C@H](C(=O)NC[C@H](COC(=O)C(C)(C)C)Cc1ccccc1)c1ccc(NS(C)(=O)=O)c(F)c1` [6-5, N-[(2R)-2-Benzyl-3-(pivaloyloxy)propyl]-(2S)-2-[3-fluoro-4-(methylsulfonylamino)phenyl]propionamide], the melting point lay within 40 to 42 °C. At rat VR1 [1], the inhibition constant (Ki) worked out at 8.55 nM. Further, at rat VR1 [2] (setting [3]), the inhibitory constant (Ki) amounted to 43.4 nM.
In the case of `C[C@H](C(=O)NC[C@H](COC(=O)C(C)(C)C)Cc1ccc(C(C)(C)C)cc1)c1ccc(NS(C)(=O)=O)c(F)c1` [6-9, N-[(2R)-2-(4-t-Butylbenzyl)-3-(pivaloyloxy)propyl]-(2S)-2-[3-fluoro-4-(methylsulfonylamino)phenyl]propionamide], the melting point lay within 44 to 46 °C. This compound displayed a Ki on rat VR1 [1] of 0.58 nM. For the same compound, the affinity at rat VR1 [2], expressed as Ki, was 4.24 nM.
On to `C[C@H](C(=O)NC[C@@H](COC(=O)C(C)(C)C)Cc1ccc(C(C)(C)C)cc1)c1ccc(NS(C)(=O)=O)c(F)c1` [6-10, N-[(2S)-2-(4-t-Butylbenzyl)-3-(pivaloyloxy)propyl]-(2S)-2-[3-fluoro-4-(methylsulfonylamino)phenyl]propionamide], for which the melting point fell in the range of 43 to 45 °C. Also, on rat VR1 [1], the Ki came to 10.9 nM. At rat VR1 [2], the inhibitory constant (Ki) was found to be 6.58 nM.
As for `C[C@@H](C(=O)NC[C@@H](COC(=O)C(C)(C)C)Cc1ccc(C(C)(C)C)cc1)c1ccc(NS(C)(=O)=O)c(F)c1` [6-11, N-[(2S)-2-(4-t-Butylbenzyl)-3-(pivaloyloxy)propyl]-(2R)-2-[3-fluoro-4-(methylsulfonylamino)phenyl]propionamide], the melting point lay in the range of 44 to 46 °C. This compound also yielded a Ki on rat VR1 [1] of 142 nM. For the same compound, at rat VR1 [2] (setting [3]), the Ki came to 63.8 nM.
Taken in the same sequence, the figures for `C[C@@H](C(=O)NC[C@H](COC(=O)C(C)(C)C)Cc1ccc(C(C)(C)C)cc1)c1ccc(NS(C)(=O)=O)c(F)c1` [6-12, N-[(2R)-2-(4-t-Butylbenzyl)-3-(pivaloyloxy)propyl]-(2R)-2-[3-fluoro-4-(methylsulfonylamino)phenyl]propionamide] were 43 to 45 °C, 30.3 nM and 53 nM.
As for `C[C@H](C(=O)NC[C@H](COC(=O)C(C)(C)C)Cc1ccc(C(C)(C)C)cc1)c1ccc(NS(C)(=O)=O)c(Cl)c1` [6-13, N-[(2R)-2-(4-t-Butylbenzyl)-3-(pivaloyloxy)propyl]-(2S)-2-[3-chloro-4-(methylsulfonylamino)phenyl]propionamide], the melting point lay in the range of 61 to 63 °C. The same compound gave a Ki on rat VR1 [1] of 5.23 nM. Also, the inhibition constant Ki on rat VR1 [2] (setting [3]) was 1.83 nM.
Turning to `C[C@H](C(=O)NC[C@@H](COC(=O)C(C)(C)C)Cc1ccc(C(C)(C)C)cc1)c1ccc(NS(C)(=O)=O)c(Cl)c1` [6-14, N-[(2S)-2-(4-t-Butylbenzyl)-3-(pivaloyloxy)propyl]-(2S)-2-[3-chloro-4-(methylsulfonylamino)phenyl]propionamide], the melting point is 55 to 57 °C. Besides, the inhibition constant Ki at rat VR1 [1] is 12.1 nM. The Ki on rat VR1 [2] (setting [3]) turned out to be 3.29 nM.
For `Cc1ccc(CC(CNC(=O)C(C)(C)c2ccc(NS(C)(=O)=O)cc2)COC(=O)C(C)(C)C)cc1C` (stereo not drawn) [9-1, N-[2-(3,4-Dimethylbenzyl)-3-pivaloyloxypropyl]-2-[4-(methylsulfonylamino)phenyl]-2-methylpropionamide], in that order: 126 to 130 °C, 103 nM and 372 nM.
For `Cc1ccc(CC(CNC(=O)C(C)(C)c2ccc(NS(C)(=O)=O)c(F)c2)COC(=O)C(C)(C)C)cc1C` (stereo not drawn) [9-2, N-[2-(3,4-Dimethylbenzyl)-3-pivaloyloxypropyl]-2-[3-fluoro-4-(methylsulfonylamino)phenyl]-2-methylpropionamide], the melting point lay in the range of 53 to 55 °C. Further, on rat VR1 [1], the Ki was found to be 65.4 nM. On rat VR1 [2], this compound showed an inhibitory constant (Ki) of 276 nM.
Take `COc1cc(C(C)(C)C(=O)NCC(COC(=O)C(C)(C)C)Cc2ccc(C)c(C)c2)ccc1NS(C)(=O)=O` (stereo not drawn) [9-3, N-[2-(3,4-Dimethylbenzyl)-3-pivaloyloxypropyl]-2-[3-methoxy-4-(methylsulfonylamino)phenyl]-2-methylpropionamide]: the melting point lay within 100 to 103 °C. The Ki at rat VR1 [1] was 133 nM. At rat VR1 [2] (setting [3]), the Ki stood at 152 nM.
`Cc1ccc(CCCNC(=O)C(C)(C)c2ccc(NS(C)(=O)=O)cc2)cc1C` [9-4, N-[3-(3,4-Dimethylphenyl)propyl]-2-[4-(methylsulfonylamino)phenyl]-2-methylpropionamide] showed a melting point of 138 to 139 °C. In addition, the affinity at rat VR1 [1] corresponds to a Ki of 573 nM. On rat VR1 [2], the inhibition constant Ki worked out at 1700 nM.
For the compound `Cc1ccc(CCCNC(=O)C(C)(C)c2ccc(NS(C)(=O)=O)c(F)c2)cc1C` [9-5, N-[3-(3,4-Dimethylphenyl)propyl]-2-[3-fluoro-4-(methylsulfonylamino)phenyl]-2-methylpropionamide], the melting point lay within 145 to 146 °C. The same compound yielded a Ki on rat VR1 [1] of 418 nM. On rat VR1 [2], this compound gave an inhibition constant Ki of 960 nM.
Regarding `COc1cc(C(C)(C)C(=O)NCCCc2ccc(C)c(C)c2)ccc1NS(C)(=O)=O` [9-6, N-[3-(3,4-Dimethylphenyl)propyl]-2-[3-methoxy-4-(methylsulfonylamino)phenyl]-2-methylpropionamide], the melting point was in the range of 93 to 95 °C. The same compound registered a Ki on rat VR1 [1] of 366 nM. Moreover, the affinity on rat VR1 [2] corresponds to a Ki of 838 nM.
`CC(C)(C)c1ccc(CNC(=O)C(C)(C)c2ccc(NS(C)(=O)=O)cc2)cc1` [9-7, N-(4-tert-Butylbenzyl)-2-[4-(methylsulfonylamino)phenyl]-2-methylpropionamide]: the melting point was 141 to 143 °C. Further, the affinity on rat VR1 [1], expressed as Ki, was 2550 nM. Besides, at rat VR1 [2], the inhibition constant Ki was 425 nM.
`CC(C)(C)c1ccc(CNC(=O)C(C)(C)c2ccc(NS(C)(=O)=O)c(F)c2)cc1` [9-8, N-(4-tert-Butylbenzyl)-2-[3-fluoro-4-(methylsulfonylamino)phenyl]-2-methylpropionamide] returned a melting point of 48 to 51 °C. In addition, the affinity on rat VR1 [1] corresponds to a Ki of 467 nM. Also, at rat VR1 [2] (setting [3]), the Ki stood at 1070 nM.
Compound `Cc1ccc(CC(CNC(=O)C2(c3ccc(NS(C)(=O)=O)cc3)CC2)COC(=O)C(C)(C)C)cc1C` (stereo not drawn) [12-1, N-[2-(3,4-Dimethylbenzyl)-3-pivaloyloxypropyl]-1-[4-(methylsulfonylamino)phenyl]cyclopropanecarboxamide] showed a melting point of 54 to 56 °C. Besides, the Ki at rat VR1 [1] was found to be 197 nM. In addition, the inhibitory constant (Ki) at rat VR1 [2] (setting [3]) came to 396 nM.
`Cc1ccc(CC(CNC(=O)C2(c3ccc(NS(C)(=O)=O)c(F)c3)CC2)COC(=O)C(C)(C)C)cc1C` (stereo not drawn) [12-2, N-[2-(3,4-Dimethylbenzyl)-3-pivaloyloxypropyl]-1-[3-fluoro-4-(methylsulfonylamino)phenyl]cyclopropanecarboxamide]: the melting point is 55 to 56 °C. Further, the Ki at rat VR1 [1] amounted to 567 nM. The inhibitory constant (Ki) on rat VR1 [2] (setting [3]) is 1580 nM.
